The test system of test [1] is B16F10 mouse melanoma cells. The test is described as follows: B16F10 IFNγ-induced cellular growth inhibition assay. It counts as cell-based. To be noted: B16-F10, with 0.5 ng/mL IFNγ. In short, it runs like this: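 B16F10 cells grown in DMEM+10% FBS, with or without 0.5 ng/mL final mouse IFNγ, and dosed in triplicate at 100 μM to 0.001 μM final (0.1% DMSO). Confluence imaged every 6 h for 5 days; percent growth inhibition versus DMSO/with-IFNγ control taken once DMSO/no-IFNγ wells exceeded 95% confluence, giving IC50.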

The target in test [2] is T1, His tagged PTPN2 (TC45) protein (Homo sapiens, UniProt P17706).
T1 construct: made in house
T1 sequence (P17706 with tags, fused parts or gaps isoform P17706-2): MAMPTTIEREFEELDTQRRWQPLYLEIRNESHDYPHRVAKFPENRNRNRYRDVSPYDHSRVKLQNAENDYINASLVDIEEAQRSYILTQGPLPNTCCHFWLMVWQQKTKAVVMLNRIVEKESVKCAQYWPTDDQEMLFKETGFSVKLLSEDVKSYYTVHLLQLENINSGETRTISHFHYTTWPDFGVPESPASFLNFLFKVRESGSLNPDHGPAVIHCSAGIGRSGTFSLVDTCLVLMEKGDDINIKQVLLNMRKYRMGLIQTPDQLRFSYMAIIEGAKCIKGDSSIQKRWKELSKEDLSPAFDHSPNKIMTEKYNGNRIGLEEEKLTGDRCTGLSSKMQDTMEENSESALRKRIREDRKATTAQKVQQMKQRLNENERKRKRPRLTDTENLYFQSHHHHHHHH
The experiment in a line: Mobility shift assay used to determine potency of PTPN2 inhibitors. It counts as biochemical. The note with it: enzyme 0.5 nM, substrate 2 μM; read-out: PTPN2 MSA IC50. In short, it runs like this:
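Microfluidic mobility-shift read-out (488/530 nm) of dephosphorylation of an OG488-tagged phosphotyrosine insulin receptor peptide, 2 μM, over 10 min at room temperature, after 10 min compound preincubation with 0.5 nM enzyme. Buffer: 50 mM HEPES pH 7.5, EGTA, EDTA, Tween 20, DTT. IC50 derived from % inhibition over 12-point 1:3 series.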

Test [3] relates to IFNγ-induced STAT1 phosphorylation in CD14+ monocytes. The experiment in a line: Human whole blood pSTAT1 proximal pharmacodynamic (PD) assay. The note with it: Monocyte, 3 hours compound, IFNγ 20 minutes. It counts as cell-based. On the procedure:
Example 230: Human Whole Blood pSTAT1 Proximal Pharmacodynamic (PD) Assay Human blood samples were acquired through internal AbbVie Inc's blood donation program in accordance with AbbVie's Occupational Safety and Health Administration protocols. Blood was collected by venipuncture into sodium heparin coated vacutainer tubes and kept at room temperature for no longer than 1 hour prior to the experiment initiation. Human blood samples (90 μL) were added to the individual wells of 96-well plates containing 10 μL of 10× working stock solutions of increasing concentrations of compounds to achieve final concentrations ranging from 0.025 μM to 500 μM and incubated for 3 hours at 37° C. To induce STAT1 phosphorylation the samples were then treated with recombinant human IFNγ (R&D Systems, Catalog^#285-IF, Minneapolis, Minn.; 100 nM final concentration) for 20 minutes, and 3 μL/well BV421 labeled anti-CD14 surface antibody (Biolegend, San Diego, Calif., Catalog^#301830) was added for 45 minutes before fixation and red blood cell lysis was performed with BD Phosflow Lyse/Fix buffer (BD Biosciences, San Jose, Calif., Catalog^#558049). Cells were subsequently permeabilized on ice by the addition of BD Perm III buffer (BD Biosciences, San Jose, Calif., Catalog^#558050) and stored at -80° C. until use. Before staining, the cells were washed with PBS containing 0.1% BSA. Optim/zed concentrations of BUV395 labeled anti-CD45 (BD Biosciences, San Jose, Calif., Catalog^#563792) and PE labeled anti-phospho-STAT1 ([…]; Invitrogen, Carlsbad, Calif., Catalog^#12-9008-42) antibodies were added to the cell suspensions and incubated for 2 hours. The cells were washed with PBS containing 0.1% BSA and analyzed on a BD LSRFortessaTM X20 flow cytometer (BD Biosciences, San Jose, Calif.) using BD FACSDivaTM software. The data was analyzed using FlowJo V10 analysis software (Flow Jo LLC, Ashland, Oreg.). The amount of STAT phosphorylation was measured by the mean fluorescence intensity (MFI) of pSTAT1 in CD14+monocytes. Compound dose-response curves were determined using a four-parameter logistic-nonlinear regression model from which half maximal effective concentrations (EC50) were calculated. All statistical analyses utilized GraphPad software (San Diego, Calif.).

The subject of test [4] is Pan T cells isolated from C57BL6 splenocytes. The experiment in a line: T cell function assays (IFNγ and TNFα in supernatants). It counts as cell-based, mouse. The note with it: 0.3 μM compound, 3 days. On the procedure:
Example 231: T Cell Function Assays Pan T cells were isolated from C57BL6 splenocytes using a MACS Pan T cell isolation kit II (Miltenyi Biotec, Auburn, Calif.) according to the manufacturer's instructions. Isolated T cells (200,000 cells/well in a 96 well flat-bottom plate) were cultured in RPMI 1640 supplemented with 10% FBS, […] 2-mercaptoethanol, 100 U/mL penicillin, and 100 μg/mL streptomycin, and incubated with 0.3 μM compound or DMSO in duplicates. After 1 hour, mouse T cell activator CD3/CD28 Dynabeads (ThermoFisher Scientific, Waltham, Mass.) were added at a 1:5 beads to cells ratio to stimulate the T cells for 3 days. T cells with or without compound were incubated in the absence of T cell activator beads to evaluate if compounds nonspecifically stimulate the T cells. After 3 days of stimulation, supernatants were collected and IFNγ and TNFα in supernatants were assessed using an MSD V-plex assay (Meso Scale Discovery, Rockville, Md.).

[5] abbreviates: read-out: B16F10 Growth Inhibition IC50.

Like-named read-outs stand apart in the source and are kept apart here. A value given as a limit tells only on which side of the number the result lay.

One may read the IC50 as the concentration that gives 50% inhibition. The term EC50 denotes the concentration that produces a half-maximal response. Read a low EC50 as greater potency. As for `O=C1CN(c2c(O)cc3c(c2F)C[C@H](NCCCC(F)(F)F)CC3)S(=O)(=O)N1` (single isomer, unassigned) [Compound 146], the results for the concentration for half-maximal inhibition (IC50) in test [1] (read-out: B16F10 GI IC50), in test [1] (setting [5]) and in test [2] were < 1 µM, < 0.05 µM and 0.001 to 0.01 µM, respectively. The same compound returned an EC50 in test [3] of 0.4 µM.
With `O=C1CN(c2c(O)cc3c(c2F)C[C@H](NCCC2CCCC2)CC3)S(=O)(=O)N1` [Compound 200, 5-{(7R)-7-[(2-cyclopentylethyl)amino]-1-fluoro-3-hydroxy-5,6,7,8-tetrahydronaphthalen-2-yl}-1λ^6,2,5-thiadiazolidine-1,1,3-trione], the IC50 in test [1] (read-out: B16F10 GI IC50) is < 1 µM; in test [1] (setting [5]) it was < 0.05 µM. The compound also had an EC50 in test [3] of 2.4 µM.
Turning to `CC(C)(O)CCOc1ccc2cc(O)c(N3CC(=O)NS3(=O)=O)c(F)c2c1` [Compound Y], the half-maximal inhibitory concentration (IC50) in test [1] (setting [5]) was 5.8 µM. In test [4] (anti-CD3/CD28 stimulation), the “IFNγ [pg/mL] anti-CD3/CD28” value was 67.2 pg/mL and the “TNFα [pg/mL] anti-CD3/CD28” value came out at 32.5 pg/mL. Besides, in test [4] (no stimulation), the “IFNγ [pg/mL] no stimulation” value is listed as 1.2 pg/mL and the “TNFα [pg/mL] no stimulation” value stood at 1.0 pg/mL. Also, in test [3], the EC50 was 38 µM.
Turning to `CCC1CCc2cc(O)c(N3CC(=O)NS3(=O)=O)c(F)c2C1` (stereo not drawn) [Compound Z], in test [1] (setting [5]), the IC50 was 17.8 µM. Besides, in test [3], the EC50 was > 500 µM.
